# Assay results: US9540314B2, “N-cycloalkyl-N-[(cycloalkenylphenyl)methylene]-(thio) carboxamide derivatives” (BAYER INTELLECTUAL PROPERTY GMBH, priority 2012, dated 2017)
# What was measured:
# Sphaerotheca fuliginea = test: In vivo preventive test on Sphaerotheca fuliginea (powdery mildew on cucurbits); conditions: 500 ppm, gherkin plants, grading 12 days after contamination
# Experimental: The active ingredients tested are prepared by homogenization in a mixture of acetone/tween/DMSO and then diluted with water to obtain the desired active material concentration.
# Gherkin plants (“Vert petit de Paris” variety), sown in starter cups on a 50/50 peat soil-pozzolana substrate and grown at 24° C., are treated at the Z11 cotyledon stage by spraying with the active ingredient prepared as described above. Plants, used as controls, are treated with the mixture of acetone/tween/DMSO/water not containing the active material.
# After 24 hours, the plants are contaminated by spraying the cotyledons with an aqueous suspension of Sphaerotheca fuliginea spores (100 000 spores per mL). The spores are collected from infected plants. The contaminated gherkin plants are incubated at about 20° C. and at 70-80% relative humidity.
# Grading (% of efficacy) is carried out 12 days after the contamination, in comparison with the control plants.
# Under these conditions, good (at least 70%) to total protection is observed at a dose of 500 ppm of active ingredient with the following compounds from table A: […]
# Alternaria solani = test: In vivo preventive test on Alternaria solani (tomato); conditions: 100 ppm, evaluated 3 days after inoculation
# Experimental: Solvent: 24.5 parts by weight of acetone
# • 24.5 parts by weight of N,N-dimethylacetamide Emulsifier: 1 part by weight of alkylarylpolyglycol ether
# (§1) To produce a suitable preparation of active compound, 1 part by weight of active compound is mixed with the stated amounts of solvent and emulsifier, and the concentrate is diluted with water to the desired concentration.
# To test for preventive activity, young plants are sprayed with the preparation of active compound at the stated rate of application. After the spray coating has dried on, the plants are inoculated with an aqueous spore suspension of Alternaria solani. The plants are then placed in an incubation cabinet at approximately 20° C. and a relative atmospheric humidity of 100%.
# The test is evaluated 3 days after the inoculation. 0% means an efficacy which corresponds to that of the untreated control while an efficacy of 100% means that no disease is observed.
# Under these conditions, high (at least 90%) protection is observed at a dose of 100 ppm of active ingredient with the following compound from table B: […]
# Alternaria brassicae = test: In vivo preventive test on Alternaria brassicae (leaf spot on radish); conditions: Table C1, 500 ppm, radish plants, grading 6 days after contamination
# Experimental: The active ingredients tested are prepared by homogenization in a mixture of acetone/tween/DMSO, and then diluted with water to obtain the desired active material concentration.
# Radish plants (“Pernod Clair” variety), sown in starter cups on a 50/50 peat soil pozzolana substrate and grown at 17° C., are treated at the cotyledon stage by spraying with the active ingredient prepared as described above. Plants, used as controls, are treated with the mixture of acetone/tween/DMSO/water not containing the active material.
# After 24 hours, the plants are contaminated by spraying the cotyledons with an aqueous suspension of Alternaria brassicae spores (50 000 spores per mL). The spores are collected from a 15-day-old culture.
# The contaminated radish plants are incubated at 20° C. and at 100% relative humidity.
# Grading (% of efficacy) is carried out 6 days after the contamination, in comparison with the control plants.
# Under these conditions, high (at least 80%) to excellent (at least 90%) protection is observed at a dose of 500 ppm of active ingredient with the following compounds from table C1: […]
# Botrytis cinerea = test: In vivo preventive test on Botrytis cinerea (beans)
# Experimental: as §1
# To test for preventive activity, young plants are sprayed with the preparation of active compound. After the spray coating has dried on, 2 small pieces of agar covered with growth of Botrytis cinerea are placed on each leaf. The inoculated plants are placed in a darkened chamber at 20° C. and a relative atmospheric humidity of 100%.
# 2 days after the inoculation, the size of the lesions on the leaves is evaluated. 0% means an efficacy which corresponds to that of the untreated control, while an efficacy of 100% means that no disease is observed.
# Under these conditions, excellent (at least 95%) protection is observed at a dose of 100 ppm of active ingredient with the following compound from table E1: […]
# Leptosphaeria nodorum = test: In vivo preventive test on Leptosphaeria nodorum (wheat); conditions: 100 ppm, evaluated 7-9 days after inoculation
# Experimental: Solvent: 49 parts by weight of N,N-dimethylacetamide
# Emulsifier: 1 part by weight of alkylarylpolyglycol ether
# To produce a suitable preparation of active compound, 1 part by weight of active compound or active compound combination is mixed with the stated amounts of solvent and emulsifier, and the concentrate is diluted with water to the desired concentration.
# To test for preventive activity, young plants are sprayed with the preparation of active compound or active compound combination at the stated rate of application.
# After the spray coating has been dried, the plants are sprayed with a spore suspension of Leptosphaeria nodorum. The plants remain for 48 hours in an incubation cabinet at approximately 20° C. and a relative atmospheric humidity of approximately 100%.
# The plants are placed in the greenhouse at a temperature of approximately 22° C. and a relative atmospheric humidity of approximately 80%.
# The test is evaluated 7-9 days after the inoculation. 0% means an efficacy which corresponds to that of the untreated control, while an efficacy of 100% means that no disease is observed.
# Under these conditions, excellent (at least 95%) protection is observed at a dose of 100 ppm of active ingredient with the following compound from table G: […]
# Pyrenophora teres = test: In vivo preventive test on Pyrenophora teres (barley); conditions: 500 ppm of active ingredient; barley plants, preventive spray; grading 14 days after contamination
# In short: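 Barley plants ('Plaisant', 1-leaf stage) were sprayed with compound in acetone/tween/DMSO/water, then inoculated 24 h later with P. teres spores (12 000 spores per mL). Plants were held 48 h at 20° C./100% RH, then 12 days at 70-80% RH. Efficacy (%) was graded 14 days after inoculation relative to solvent-treated controls.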
compound,measurement,setting,value
Cc1nn(C)c(F)c1C(=O)N(C1CC1)C(C)c1ccccc1C1=CCCC1 (racemic) [I.1],Efficacy,Sphaerotheca fuliginea,100%
same,Efficacy,Alternaria solani,94%
same,Efficacy,Alternaria brassicae,98%
same,Efficacy,"Botrytis cinerea; Table E1, 100 ppm, lesion size 2 days after inoculation",98%
same,Efficacy,"Botrytis cinerea; Table E2, dose 100 ppm, 2 days after inoculation",98%
same,Efficacy,"Botrytis cinerea; Table E2, dose 100 ppm, 2 days after inoculation, listed as 1.1",at least 95%
same,Efficacy,"Botrytis cinerea; Table E2, dose 250 ppm, 2 days after inoculation",98%
same,Efficacy,"Botrytis cinerea; Table E2, dose 250 ppm, 2 days after inoculation, listed as 1.1",at least 95%
same,Efficacy,Leptosphaeria nodorum,95%
same,Efficacy,Pyrenophora teres,97%
